# Assay results taken from ChEMBL document CHEMBL5715949, “Discovery of a selective irreversible BMX inhibitor for prostate cancer” (ACS Chem Biol, 2013).
# The source made the active and inactive calls. The rule behind the calls is not given here.
# Columns and labels:
# [1] = Inhibition of PI3K/AKT/mTOR signalling pathway in human RV-1 cells assessed as decrease in S6K phosphorylation at T389 residue at 2.5 uM incubated for 5 days in presence of MK2206 by immunoblot analysis; type: cell-based; conditions: time 5.0 day
# [2] = molecular target: Serine/threonine-protein kinase TAO2 (Homo sapiens) (UniProt Q9UL54); assay: Inhibition of TAOK2 (unknown origin) assessed as remaining activity at 1 uM by Kinome scan method relative to control
# [3] = Induction of cell cycle arrest in human RV-1 cells assessed as accumulation of cells at G1 phase at 2.5 uM incubated for 5 days by propidium iodide staining based flow cytometric analysis (reference value: 59.7 %); type: functional; conditions: time 5 day
# [4] = Inhibition of PI3K/AKT/mTOR signalling pathway in human RV-1 cells assessed as decrease in FOXO3A phosphorylation at S253 residue at 2.5 uM incubated for 4 hrs by immunoblot analysis; type: cell-based
# [5] = molecular target: Tyrosine-protein kinase Mer (Homo sapiens) (UniProt Q12866); assay: Inhibition of MERTK (unknown origin) assessed as remaining activity at 1 uM by Kinome scan method relative to control
# [6] = Cytotoxicity against mouse BaF3 cells assessed growth inhibition incubated for 2 to 5 days by CellTiter-Glo assay; type: toxicity, cell-based; conditions: time 2-5 day
# [7] = molecular target: Protein kinase C iota type (Homo sapiens) (UniProt P41743); assay: Inhibition of PRKCI (unknown origin) assessed as remaining activity at 1 uM by Kinome scan method relative to control
# [8] = molecular target: Platelet-derived growth factor receptor alpha (Homo sapiens) (UniProt P16234); assay: Inhibition of PDGFRalpha (unknown origin) assessed as remaining activity at 1 uM by Kinome scan method relative to control
# [9] = molecular target: Ephrin type-B receptor 2 (Homo sapiens) (UniProt P29323); assay: Inhibition of EPHB2 (unknown origin) assessed as remaining activity at 1 uM by Kinome scan method relative to control
# Ephrin type-B receptor 2 (Homo sapiens), sequence (P29323 whole entry): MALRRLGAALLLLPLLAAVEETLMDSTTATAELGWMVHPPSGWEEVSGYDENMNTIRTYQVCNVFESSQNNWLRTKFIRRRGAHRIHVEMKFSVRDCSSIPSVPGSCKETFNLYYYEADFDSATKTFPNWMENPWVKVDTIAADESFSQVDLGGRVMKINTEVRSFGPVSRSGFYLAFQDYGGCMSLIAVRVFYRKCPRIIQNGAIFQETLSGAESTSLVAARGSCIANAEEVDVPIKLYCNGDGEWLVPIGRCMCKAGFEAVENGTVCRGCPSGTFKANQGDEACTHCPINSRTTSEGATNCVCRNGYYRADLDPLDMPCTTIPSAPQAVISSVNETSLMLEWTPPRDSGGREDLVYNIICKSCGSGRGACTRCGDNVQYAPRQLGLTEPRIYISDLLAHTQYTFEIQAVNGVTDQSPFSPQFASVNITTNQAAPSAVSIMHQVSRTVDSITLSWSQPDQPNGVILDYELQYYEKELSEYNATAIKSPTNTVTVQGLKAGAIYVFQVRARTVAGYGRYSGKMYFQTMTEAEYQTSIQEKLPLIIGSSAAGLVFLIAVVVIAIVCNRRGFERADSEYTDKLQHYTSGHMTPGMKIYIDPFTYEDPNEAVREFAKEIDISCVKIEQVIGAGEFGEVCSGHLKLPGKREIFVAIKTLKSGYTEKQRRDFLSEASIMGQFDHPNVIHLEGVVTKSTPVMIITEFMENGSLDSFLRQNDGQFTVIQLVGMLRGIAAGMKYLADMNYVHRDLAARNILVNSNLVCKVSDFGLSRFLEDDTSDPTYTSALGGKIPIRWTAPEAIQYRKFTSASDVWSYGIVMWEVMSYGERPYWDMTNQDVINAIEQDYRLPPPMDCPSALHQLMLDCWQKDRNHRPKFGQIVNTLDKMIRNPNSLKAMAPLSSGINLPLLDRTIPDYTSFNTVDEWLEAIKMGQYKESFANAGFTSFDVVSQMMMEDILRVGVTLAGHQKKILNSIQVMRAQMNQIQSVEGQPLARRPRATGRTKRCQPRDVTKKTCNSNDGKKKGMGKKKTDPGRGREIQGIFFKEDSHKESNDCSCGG
# [10] = Inhibition of PI3K/AKT/mTOR signalling pathway in human RV-1 cells assessed as decrease in 4EBP phosphorylation at T37/46 residue at 2.5 uM incubated for 5 days by immunoblot analysis; type: cell-based; conditions: time 5.0 day
# [11] = molecular target: cAMP-dependent protein kinase catalytic subunit beta (Homo sapiens) (UniProt P22694); assay: Inhibition of PKAC-beta (unknown origin) assessed as remaining activity at 1 uM by Kinome scan method relative to control
# [12] = system: Proto-oncogene tyrosine-protein kinase receptor Ret (Homo sapiens), P07949 [V804L]; assay: Inhibition of RET V804L (unknown origin) assessed as remaining activity at 1 uM by Kinome scan method relative to control
# [13] = system: RV-1; assay: Induction of apoptosis in human RV-1 cells assessed as decrease in number of cell at 5 uM incubated for 3 days by Hoechst 33342 staining based analysis; type: functional; conditions: time 3.0 day
# [14] = Antiproliferative activity against human RV-1 cells assessed growth inhibition incubated for 2 to 5 days by CellTiter-Glo assay; type: functional; conditions: time 2-5 day
# [15] = molecular target: Cytoplasmic tyrosine-protein kinase BMX (Homo sapiens, UniProt P51813); assay: Inhibition of Flag-tagged BMX (unknown origin) expressed in HEK293T cells pre incubated for 30 mins followed by ATP addition and measured after 20 mins by immunoprecipitate assay; type: cell-based
# [16] = molecular target: BDNF/NT-3 growth factors receptor (Homo sapiens) (UniProt Q16620); assay: Inhibition of TRKB (unknown origin) assessed as remaining activity at 1 uM by Kinome scan method relative to control
# BDNF/NT-3 growth factors receptor (Homo sapiens), sequence (Q16620 32-822 limits assumed): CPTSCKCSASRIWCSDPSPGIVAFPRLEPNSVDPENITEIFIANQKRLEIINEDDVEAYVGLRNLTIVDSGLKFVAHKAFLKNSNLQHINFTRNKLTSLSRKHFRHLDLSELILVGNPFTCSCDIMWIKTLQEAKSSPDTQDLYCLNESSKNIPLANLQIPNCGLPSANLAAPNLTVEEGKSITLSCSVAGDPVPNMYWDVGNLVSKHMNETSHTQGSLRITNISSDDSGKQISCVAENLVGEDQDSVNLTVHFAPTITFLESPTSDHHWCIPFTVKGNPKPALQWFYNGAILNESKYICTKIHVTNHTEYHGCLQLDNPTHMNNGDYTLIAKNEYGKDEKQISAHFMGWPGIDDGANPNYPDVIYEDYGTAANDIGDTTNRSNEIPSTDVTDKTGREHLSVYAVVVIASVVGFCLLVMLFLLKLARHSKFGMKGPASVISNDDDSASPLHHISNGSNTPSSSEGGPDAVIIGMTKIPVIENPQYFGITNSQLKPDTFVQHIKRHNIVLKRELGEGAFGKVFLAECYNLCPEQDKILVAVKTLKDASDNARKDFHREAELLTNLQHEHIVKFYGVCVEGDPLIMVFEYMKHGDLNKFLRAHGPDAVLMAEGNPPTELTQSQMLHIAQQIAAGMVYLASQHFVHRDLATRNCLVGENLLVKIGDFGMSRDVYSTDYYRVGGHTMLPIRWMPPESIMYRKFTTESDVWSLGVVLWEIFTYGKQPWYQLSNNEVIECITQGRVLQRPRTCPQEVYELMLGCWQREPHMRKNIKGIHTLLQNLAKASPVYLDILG
# [17] = molecular target: Rhodopsin kinase GRK7 (Homo sapiens) (UniProt Q8WTQ7); assay: Inhibition of GRK7 (unknown origin) assessed as remaining activity at 1 uM by Kinome scan method relative to control
# [18] = molecular target: Myosin light chain kinase 2, skeletal/cardiac muscle (Homo sapiens) (UniProt Q9H1R3); assay: Inhibition of MYLK2 (unknown origin) assessed as remaining activity at 1 uM by Kinome scan method relative to control
# Myosin light chain kinase 2, skeletal/cardiac muscle (Homo sapiens), sequence (Q9H1R3 whole entry): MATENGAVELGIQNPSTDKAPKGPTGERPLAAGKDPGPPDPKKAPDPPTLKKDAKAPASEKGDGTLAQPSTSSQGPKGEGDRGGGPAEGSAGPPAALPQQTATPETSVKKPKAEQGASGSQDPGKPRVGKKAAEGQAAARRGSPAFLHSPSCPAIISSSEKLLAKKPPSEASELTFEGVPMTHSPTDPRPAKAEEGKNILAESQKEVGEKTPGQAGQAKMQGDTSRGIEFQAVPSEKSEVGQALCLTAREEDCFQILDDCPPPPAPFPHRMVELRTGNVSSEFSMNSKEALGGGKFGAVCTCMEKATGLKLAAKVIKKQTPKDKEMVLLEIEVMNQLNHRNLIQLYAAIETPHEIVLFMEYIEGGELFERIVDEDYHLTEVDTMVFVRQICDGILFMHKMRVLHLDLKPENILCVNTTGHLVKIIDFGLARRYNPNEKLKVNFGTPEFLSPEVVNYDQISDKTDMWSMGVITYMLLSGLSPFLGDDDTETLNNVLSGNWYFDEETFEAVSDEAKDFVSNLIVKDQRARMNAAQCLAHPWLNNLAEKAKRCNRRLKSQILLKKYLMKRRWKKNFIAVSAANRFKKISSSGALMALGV
# [19] = molecular target: Tyrosine-protein kinase Yes (Homo sapiens) (UniProt P07947); assay: Inhibition of YES (unknown origin) assessed as remaining activity at 1 uM by Kinome scan method relative to control
# Tyrosine-protein kinase Yes (Homo sapiens), sequence (P07947 2-543 limits assumed): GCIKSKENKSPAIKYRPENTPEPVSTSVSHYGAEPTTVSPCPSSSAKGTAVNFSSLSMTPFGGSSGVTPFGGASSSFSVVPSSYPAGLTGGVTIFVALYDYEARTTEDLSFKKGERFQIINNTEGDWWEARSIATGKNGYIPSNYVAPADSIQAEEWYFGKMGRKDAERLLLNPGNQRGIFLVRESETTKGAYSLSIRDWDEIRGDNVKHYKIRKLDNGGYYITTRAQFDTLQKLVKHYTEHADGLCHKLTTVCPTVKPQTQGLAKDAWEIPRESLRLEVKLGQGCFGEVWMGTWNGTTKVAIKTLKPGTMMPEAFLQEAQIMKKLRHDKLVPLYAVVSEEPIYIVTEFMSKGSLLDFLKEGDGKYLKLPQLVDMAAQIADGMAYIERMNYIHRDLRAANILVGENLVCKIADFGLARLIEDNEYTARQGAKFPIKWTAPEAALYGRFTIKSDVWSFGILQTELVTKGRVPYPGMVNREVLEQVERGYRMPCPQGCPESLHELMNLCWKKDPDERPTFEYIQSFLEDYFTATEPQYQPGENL
# [20] = molecular target: Activin receptor type-2A (Homo sapiens) (UniProt P27037); assay: Inhibition of ACVR2A (unknown origin) assessed as remaining activity at 1 uM by Kinome scan method relative to control
# [21] = Induction of cell cycle arrest in human RV-1 cells assessed as accumulation of cells at S phase at 2.5 uM incubated for 5 days in presence of MK2206 by propidium iodide staining based flow cytometric analysis (reference value: 28.9 %); type: functional; conditions: time 5 day
# [22] = system: RV-1; assay: Antiproliferative activity against human RV-1 cells assessed as reduction in cell viability at 500 to 2500 nM incubated for 5 days in presence of GDC0941 by CellTiter-Glo assay; type: functional, cell-based; conditions: dose 500-2500 nM, time 5.0 day
# [23] = molecular target: Interleukin-1 receptor-associated kinase 1 (Homo sapiens) (UniProt P51617); assay: Inhibition of IRAK1 (unknown origin) assessed as remaining activity at 1 uM by Kinome scan method relative to control
# [24] = molecular target: Myosin light chain kinase family member 4 (Homo sapiens) (UniProt Q86YV6); assay: Inhibition of MYLK4 (unknown origin) assessed as remaining activity at 1 uM by Kinome scan method relative to control
# Myosin light chain kinase family member 4 (Homo sapiens), sequence (Q86YV6 whole entry): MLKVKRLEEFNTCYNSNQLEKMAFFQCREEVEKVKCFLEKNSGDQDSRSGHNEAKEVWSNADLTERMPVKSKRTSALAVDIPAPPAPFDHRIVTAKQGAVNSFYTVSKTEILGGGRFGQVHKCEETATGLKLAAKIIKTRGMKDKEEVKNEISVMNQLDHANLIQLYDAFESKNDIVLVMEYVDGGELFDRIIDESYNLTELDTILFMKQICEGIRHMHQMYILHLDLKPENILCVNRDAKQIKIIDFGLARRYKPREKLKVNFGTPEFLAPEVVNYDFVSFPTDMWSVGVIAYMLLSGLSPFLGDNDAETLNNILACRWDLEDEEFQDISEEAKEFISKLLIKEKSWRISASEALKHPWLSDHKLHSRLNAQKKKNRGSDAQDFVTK
# [25] = molecular target: Activin receptor type-1B (Homo sapiens) (UniProt P36896); assay: Inhibition of ACVR1B (unknown origin) assessed as remaining activity at 1 uM by Kinome scan method relative to control
# Activin receptor type-1B (Homo sapiens), sequence (P36896 whole entry): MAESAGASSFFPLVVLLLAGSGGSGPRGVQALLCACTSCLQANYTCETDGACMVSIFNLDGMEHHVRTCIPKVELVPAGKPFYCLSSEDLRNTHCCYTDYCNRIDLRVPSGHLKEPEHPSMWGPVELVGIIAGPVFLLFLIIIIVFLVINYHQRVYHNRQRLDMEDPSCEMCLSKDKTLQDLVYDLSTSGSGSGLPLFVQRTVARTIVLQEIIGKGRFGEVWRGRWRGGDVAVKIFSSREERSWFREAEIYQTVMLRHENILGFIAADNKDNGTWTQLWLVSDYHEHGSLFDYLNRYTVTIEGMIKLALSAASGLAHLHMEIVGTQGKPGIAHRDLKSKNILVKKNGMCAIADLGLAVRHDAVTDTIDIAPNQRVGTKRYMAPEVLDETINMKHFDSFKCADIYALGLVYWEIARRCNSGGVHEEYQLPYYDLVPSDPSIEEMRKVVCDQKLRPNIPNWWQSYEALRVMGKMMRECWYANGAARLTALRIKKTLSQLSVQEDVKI
# [26] = molecular target: Mitogen-activated protein kinase kinase kinase 20 (Homo sapiens) (UniProt Q9NYL2); assay: Inhibition of ZAK (unknown origin) assessed as remaining activity at 1 uM by Kinome scan method relative to control
# Mitogen-activated protein kinase kinase kinase 20 (Homo sapiens), sequence (Q9NYL2 2-800 limits assumed): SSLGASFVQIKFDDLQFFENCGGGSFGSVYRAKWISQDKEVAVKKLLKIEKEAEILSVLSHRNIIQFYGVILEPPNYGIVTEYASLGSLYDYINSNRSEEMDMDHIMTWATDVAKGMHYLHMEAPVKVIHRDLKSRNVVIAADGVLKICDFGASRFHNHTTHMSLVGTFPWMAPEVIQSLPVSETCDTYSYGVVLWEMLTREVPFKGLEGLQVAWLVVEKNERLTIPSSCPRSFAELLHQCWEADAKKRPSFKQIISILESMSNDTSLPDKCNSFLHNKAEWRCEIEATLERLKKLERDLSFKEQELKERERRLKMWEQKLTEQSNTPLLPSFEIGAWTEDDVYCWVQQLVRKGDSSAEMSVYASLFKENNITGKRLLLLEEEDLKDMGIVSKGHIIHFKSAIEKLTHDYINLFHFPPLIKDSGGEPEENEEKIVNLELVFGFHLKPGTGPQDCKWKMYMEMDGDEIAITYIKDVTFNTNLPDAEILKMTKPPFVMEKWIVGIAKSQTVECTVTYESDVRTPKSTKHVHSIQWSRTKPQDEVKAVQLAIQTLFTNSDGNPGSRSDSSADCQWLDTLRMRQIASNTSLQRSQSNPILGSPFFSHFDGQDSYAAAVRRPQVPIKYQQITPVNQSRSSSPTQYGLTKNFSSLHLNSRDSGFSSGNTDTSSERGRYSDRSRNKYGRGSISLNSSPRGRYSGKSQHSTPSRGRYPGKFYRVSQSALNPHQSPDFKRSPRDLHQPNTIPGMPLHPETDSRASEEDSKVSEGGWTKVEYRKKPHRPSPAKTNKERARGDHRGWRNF
# [27] = Induction of cell cycle arrest in human RV-1 cells assessed as accumulation of cells at G2/M phase at 2.5 uM incubated for 5 days in presence of MK2206 by propidium iodide staining based flow cytometric analysis (reference value: 11.4 %); type: functional; conditions: time 5 day
# [28] = molecular target: Serine/threonine-protein kinase 16 (Homo sapiens) (UniProt O75716); assay: Inhibition of STK16 (unknown origin) assessed as remaining activity at 1 uM by Kinome scan method relative to control
# Serine/threonine-protein kinase 16 (Homo sapiens), sequence (O75716 whole entry): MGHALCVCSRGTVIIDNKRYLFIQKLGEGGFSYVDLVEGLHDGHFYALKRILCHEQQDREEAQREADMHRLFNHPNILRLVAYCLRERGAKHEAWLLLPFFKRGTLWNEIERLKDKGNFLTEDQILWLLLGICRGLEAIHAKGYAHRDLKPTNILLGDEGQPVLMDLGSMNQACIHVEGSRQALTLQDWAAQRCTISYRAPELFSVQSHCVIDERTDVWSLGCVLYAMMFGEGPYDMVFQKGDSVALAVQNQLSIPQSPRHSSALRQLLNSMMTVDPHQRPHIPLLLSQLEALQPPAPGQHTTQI
# [29] = Inhibition of PI3K/AKT/mTOR signalling pathway in human RV-1 cells assessed as decrease in S6K phosphorylation at T389 residue at 2.5 uM incubated for 4 hrs by immunoblot analysis; type: cell-based
# [30] = molecular target: Myosin-IIIb (Homo sapiens) (UniProt Q8WXR4); assay: Inhibition of MYO3B (unknown origin) assessed as remaining activity at 1 uM by Kinome scan method relative to control
# [31] = molecular target: Serine/threonine-protein kinase RIO3 (Homo sapiens) (UniProt O14730); assay: Inhibition of RIOK3 (unknown origin) assessed as remaining activity at 1 uM by Kinome scan method relative to control
# [32] = system: Fibroblast growth factor receptor 3 (Homo sapiens), P22607 [G697C]; assay: Inhibition of FGFR3 G697C mutant (unknown origin) assessed as remaining activity at 1 uM by Kinome scan method relative to control
smiles,measurement,setting,value
C=CC(=O)Nc1cc(-n2c(=O)ccc3cnc4ccc(-c5ccc(NS(C)(=O)=O)cc5)cc4c32)ccc1C,inhibition,[1],Active
same,Activity,[2],80%
same,Activity,[3],70.3%
same,inhibition,[4],inactive
same,Activity,[5],72%
same,GI50,[6],> 10 µM
same,Activity,[7],84%
same,Activity,[8],92%
same,Activity,[9],80%
same,inhibition,[10],Active
same,Activity,[11],79%
same,Activity,[12],79%
same,Activity,[13],Active
same,GI50,[14],2.53 µM
same,IC50,[15],0.138 µM
same,Activity,[16],62%
same,Activity,[17],75%
same,Activity,[18],93%
same,Activity,[19],74%
same,Activity,[20],94%
same,Activity,[21],24.3%
same,Activity,[22],Active
same,Activity,[23],72%
same,Activity,[24],96%
same,Activity,[25],84%
same,Activity,[26],64%
same,Activity,[27],11.5%
same,Activity,[28],98%
same,inhibition,[29],inactive
same,Activity,[30],92%
same,Activity,[31],55%
same,Activity,[32],26%
